The source of these data is patent US20230220443A1, “CHARACTERIZATION OF S-ADENOSYL-L-METHIONINE-CONSUMING ENZYMES WITH 1-STEP EZ-MTASE: A UNIVERSAL COUPLED-ASSAY” (ALBERT EINSTEIN COLLEGE OF MEDICINE, priority 2017, published 2023).

The nature of data set [1]: pKa from pH-dependence of differential extinction coefficient (UV). The format is physicochemical. The procedure: Nucleoside concentrations (stock solutions) were determined using known extinction coefficients for: adenosine, 259(ε/M^−1 cm^−1 15,400) and 8-aza-adenosine, 277(e/M-1 cm^−1 17,830). The deaminase reactions using these various substrates were performed in quartz cuvettes (1-cm light path; 3-mL reaction volume) and absorbance measurements were carried out with a NanoDrop 2000c (scan mode: 220-320 nm with multi scans superimposed; 37° C. and continuous stirring). Briefly, the 3-mL reactions contained 50 mM buffer (acetate: pH 4.00-5.00; MES: pH 5.00-6.50; phosphate: pH 5.80-8.00; TRIS: pH 7.50-8.50; CHES: pH 8.90-9.90), 1 mM βME and 10% glycerol. Five different concentrations of either adenosine or 8-aza-adenosine substrates were used (10, 20, 30, 40 and 50 μM). Mixtures were blanked before acquisition and reactions started upon addition of deaminase (TM0936, 2 μL of 240.5 μM enzyme stock). Over the course of the deaminase reaction (e.g. adenosine→inosine), optimum wavelengths at which the highest absorbance shift is observed were selected (i.e. adenosine reaction, λ=[…]; 8-aza-adenosine reaction, λ1=282 nm and λ2=292 nm). Scans were recorded until the absorbance at these monitored wavelengths reached a stable value (82). For each pH condition, the end-point absorbance shifts were plotted against initial nucleoside concentrations and fitted to a linear regression: each slope is a differential extinction coefficient (Δε) for deamination of the specific nucleoside substrate. Furthermore, the pH-dependence of differential extinction coefficient (Ae) for this deaminase reaction was obtained by plotting the pairs (Δε; pH) and fitting these to the following supplementary Eq. 2:
where ΔεHIGH pH and ΔεLOW pH are the extinction coefficient measured at optimum wavelengths (i.e. λ for adenosine and λ1 or λ2 for 8-aza-adenosine) for the deaminase reaction at high and low pH, respectively, and […] is the logarithm of acid dissociation constant for either inosine or 8-aza-inosine.

The conditions of data set [2]: cited from earlier work.
The nature of data set [3]: pKa from pH-dependence of fluorescence. The format is physicochemical. Conditions: 50 mM buffer series. How it is done:
Calibration of fluorescence signal for the 8-aza-A to 8-aza-I reaction—This procedure is very similar to the one described under “Differential Extinction Coefficients (Δε) for Deaminase Reaction”. Briefly, standard solutions (240 μL) of 8-aza-adenosine (0-25 μM; 12 data points) containing 50 mM buffer (pH 5.00-9.50), 10% glycerol and 1 mM βME, were loaded into a […] black flat bottom plate. 10-μL water per well were added to one data-set (12 concentrations of 8-aza-adensoine); 10-μL TM0936 solution (24.05 μM) were added to the remaining samples (12 concentrations of 8-azaadenosine at various pH values). The loss of fluorescence (Em=360 nm) from 8-azaadenosine standard solutions (Ex=282/292 nm) where recorded with a Spectramax M5 plate reader until no change in signal could be observed.
At a same pH, the comparison between end-point deaminase reactions and reference well (TM0936 added but no 8-aza-adenosine) provided the pH-dependence of 8-azainosyl fluorescence. […] Furthermore, the comparison between end-point deaminase reactions and reference well (various 8-aza-adenosine concentrations but no TM0936 added) provided the calibration curve of fluorescence signal for the 8-aza-adenosine to 8-aza-ionisine reaction. […]

Another data set deals with T1, GsSDMT (Galdieria sulphuraria, UniProt M2XPA0).
T1 sequence (M2XPA0 2-297): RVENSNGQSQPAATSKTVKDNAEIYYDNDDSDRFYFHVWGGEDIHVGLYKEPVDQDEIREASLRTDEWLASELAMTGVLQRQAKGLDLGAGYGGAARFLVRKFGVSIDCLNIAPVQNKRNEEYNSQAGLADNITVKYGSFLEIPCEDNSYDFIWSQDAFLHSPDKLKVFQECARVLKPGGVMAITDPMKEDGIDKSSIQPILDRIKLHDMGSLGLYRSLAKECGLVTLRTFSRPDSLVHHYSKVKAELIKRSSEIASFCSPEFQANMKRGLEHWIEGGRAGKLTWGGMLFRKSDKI
Kind of data set: 1-Step EZ-MTase UV-based coupled assay, GsSDMT kinetics. The format is biochemical. Conditions: pH=7.80, co-substrate saturating. How it is done:
Kinetic behavior for sarcosine against GsSDMT (SAM sat.)—Experiments were conducted following matching CePRMT5 protocol above. Briefly, the 100-μL mixtures from a same row contained 100 mM phosphate buffer pH=7.80, 1 mM βME, 5% glycerol, 100 μM MgCl2, 4 μM coupling deaminase TM0936, 976 nM GsSDMT and various sarcosine concentrations (0.5-12.5 mM; in the first well, sarcosine was omitted to account for background signal—natural decomposition of SAM). Reactions started upon addition of SAM (750 μM saturating final concentration), 60-μL volumes were transferred onto UV plate and absorbance was recorded. Initial rates were first corrected for background signal, and then plotted against sarcosine concentrations. Fit to the Michaelis-Menten equation provided corresponding kinetic parameters.
Kinetic behavior for SAM against GsSDMT (sarcosine sat.)—Experiments were conducted following matching CePRMT5 protocol above. Briefly, the measurements consisted of two experimental subsets: MTase reactions (both SAM and sarcosine added) and MTase blanks (SAM was added without sarcosine to account for natural SAM decomposition). The 100-μL reaction mixtures from a same row contained 100 mM phosphate buffer pH=7.80, 1 mM βME, 5% glycerol, 100 μM MgCl2, 4 μM coupling deaminase TM0936, 195 nM GsSDMT and various SAM concentrations (49.9-750.2 μM). Reactions started upon addition of either sarcosine (10 mM saturating final concentration; MTase reactions) or water (MTase blanks), 60-μL volumes were transferred onto UV plate and absorbance was recorded at 263 nm. Initial rates were first corrected for background signal, and then plotted against SAM concentrations. Fit to the Michaelis-Menten equation provided corresponding kinetic parameters.
Kinetic behavior for 8-aza-SAM against MTases (acceptor sat.)—Briefly, kinetic parameters were determined at 20° C. in a UV-Star 96-well flat bottom plate (Greiner Bio-One, #655801) by continuous monitoring of absorbance at 282 nm using a SpectraMax M5 instrument (Molecular Devices). As for SAM experiments, the measurements consisted of two experimental subsets: MTase reactions (both 8-aza-SAM and acceptor added) and MTase blanks (8-aza-SAM was added without acceptor to account for natural 8-aza-SAM decomposition). The 250-μL (60-μL) reaction mixtures from a same row contained 50 mM phosphate buffer pH=7.60 (7.80), 1 mM βME, 10% glycerol (5% glycerol, 100 μM MgCl2), 4 μM coupling deaminase TM0936, either 1.5 μM CePRMT5 or 402 nM TbPRMT7 (or 610 nM GsSDMT) and various 8-aza-SAM concentrations. […] Initial rates were first corrected for background signal, then plotted against 8-aza-SAM concentrations and fitted to the Michaelis-Menten equation to yield corresponding kinetic parameters.

The target in another data set is T2, deaminase TM0936 (Thermotoga maritima, UniProt Q9X034).
T2 construct: polyhistidine; made in house; host or cells: bacteria
T2 sequence (Q9X034 1-406): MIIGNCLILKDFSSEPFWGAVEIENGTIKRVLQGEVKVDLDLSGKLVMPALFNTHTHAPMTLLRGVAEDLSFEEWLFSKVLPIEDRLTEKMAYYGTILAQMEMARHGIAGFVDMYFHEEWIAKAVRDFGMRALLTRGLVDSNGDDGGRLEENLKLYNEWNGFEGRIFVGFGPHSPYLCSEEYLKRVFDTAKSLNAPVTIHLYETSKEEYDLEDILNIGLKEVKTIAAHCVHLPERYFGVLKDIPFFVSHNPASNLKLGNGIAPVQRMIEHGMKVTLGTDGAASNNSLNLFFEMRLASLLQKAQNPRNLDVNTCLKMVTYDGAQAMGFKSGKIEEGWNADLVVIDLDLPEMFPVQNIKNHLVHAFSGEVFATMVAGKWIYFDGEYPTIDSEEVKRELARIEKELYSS
Kind of data set: Deamination by coupling enzyme TM0936. The format is biochemical. How it is done: FIG. 9A-9D. Sinefungin is a positive control compatible with the 1-Step EZ-MTase assay. (A) MTAN-based assays catabolize the methyltransferase inhibitor sinefungin (SIN). […] (C) pH-dependence of the reaction between sinefungin and TM0936. […] (D) Inhibition of the sarcosine/dimethylglycine methyltransferase by sinefungin. […] The initial methyltransfer rates were recorded at 263 nm. Further analysis provided the inhibition constant Ki (1.8±0.4 μM).

SMILES strings stand for the structures. Where “and” joins values, the source holds several entries; their conditions need not be identical. Equal values may be shown once. Read-outs that look alike come from different tables or passages of the source.

For the compound `OC[C@H]1O[C@@H](n2cnc3c(O)ncnc32)[C@H](O)[C@@H]1O` [inosine], the pKa in data set [1] (263 nm) is 8.72 ± 0.09; in data set [2] (inosine, literature) it was 8.9 and 8.85.
Consider `OC[C@H]1O[C@@H](n2nnc3c(O)ncnc32)[C@H](O)[C@@H]1O` [8-aza-inosine], for which the pKa in data set [1] (282 nm) came out at 7.29 ± 0.03; in data set [1] (292 nm) it was 7.3 ± 0.03; in data set [3] (pH 5.00-9.50, Ex/Em 282/360 nm), 7.5 ± 0.03; in data set [3] (pH 5.00-9.50, Ex/Em 292/360), 7.54 ± 0.04.
On to `CNCC(=O)O` [Sarcosine, sarcosine], for which, on GsSDMT, the turnover number (kcat) was 1.5 ± 0.083 s⁻¹. Besides, the pKa in data set [2] (methyl-amine group from sarcosine) is given as 10.0; in data set [2] (sarcosine carboxylate) it was “≈ 2.2”.
Take `Nc1ncnc2c1ncn2[C@@H]1O[C@H](CSCC[C@H](N)C(=O)O)[C@@H](O)[C@H]1O` [SAH, S-adenosyl-L-homocysteine]: on deaminase TM0936 (room temperature), the Km was 0.6 ± 0.2 µM and the kcat is 7.1 ± 0.4 s⁻¹.
For the compound `Nc1ncnc2c1ncn2[C@@H]1O[C@H](CO)[C@@H](O)[C@H]1O` [adenosine], the “deamination by TM0936, slower than that of its 8-aza analog” value on deaminase TM0936 (10 μM substrate, 1 nM TM0936 (FIG. 7A)) is 10 fold.
